Some test systems named below: SN12C renal; DU-145 prostate; OVCAR-5 ovarian; BT-549 breast; OVCAR-3 ovarian; NCI-H522 lung; MCF7 breast; OVCAR-4 ovarian; NCI-H226 lung; HCT-116 colon.
Holding throughout (assay): inhibition of tumour cell growth, NCI panel, 48 h

“And” between values parts separate entries of the source, which are not always exact repeats. Identical values can stand only once.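 Exposure lasted 48 hours, with cells grown in 96-well plates and compounds tested at five concentrations. GI50: concentration for 50% inhibition of growth. TGI: concentration producing complete growth inhibition.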

The values that follow come from PubChem BioAssay (NCI).

Turning to `C/C=C/CC(C(=O)OCC)(N(C)C(=O)OC(C)(C)C)S(=O)(=O)c1ccc(C)cc1` (stereo not drawn), the TGI with SN12C renal, in the experiment on DU-145 prostate, in the experiment on OVCAR-5 ovarian, in the experiment on BT-549 breast, with OVCAR-3 ovarian and with NCI-H522 lung was over 100 µM throughout. The TGI in the experiment with MCF7 breast, in the experiment with OVCAR-4 ovarian, in the experiment on NCI-H226 lung and in the experiment with HCT-116 colon was over 100 µM each time.

Turning to `Cc1cccc2c(N)c3cccc(C(=O)NCC[N+](C)(C)Cc4ccc([N+](=O)[O-])n4C)c3nc12`, the TGI in the experiment with SN12C renal was over 57.3 µM; in the experiment on DU-145 prostate it was over 75.3 µM; with OVCAR-5 ovarian, over 70.8 µM; in the experiment on BT-549 breast, over 71.3 µM; in the experiment with OVCAR-3 ovarian, over 73.1 µM; with NCI-H522 lung it was 35.8 µM. Besides, the TGI is over 62.5 µM with MCF7 breast, over 74.7 µM in the experiment with OVCAR-4 ovarian, 53.3 µM in the experiment with NCI-H226 lung and 68.3 µM in the experiment with HCT-116 colon.

As to `O=C(O)c1cc(N=Nc2ccc([N+](=O)[O-])cc2)ccc1O`, the TGI in the experiment on SN12C renal is over 100 µM; with DU-145 prostate, over 100 µM; with OVCAR-5 ovarian, over 100 µM; in the experiment on BT-549 breast, over 100 µM; with OVCAR-3 ovarian, 39.8 µM; in the experiment with NCI-H522 lung, over 100 µM. Further, the TGI is 87.1 µM with MCF7 breast, 80.4 µM in the experiment with OVCAR-4 ovarian, 79.4 µM in the experiment on NCI-H226 lung and over 100 µM with HCT-116 colon.

As to `O=C(Nc1ccccc1)c1cc2ccccc2c(N=Nc2cccc([N+](=O)[O-])c2)c1O`, the TGI in the experiment on SN12C renal, in the experiment with DU-145 prostate, in the experiment on OVCAR-5 ovarian, in the experiment on BT-549 breast, in the experiment with OVCAR-3 ovarian and with NCI-H522 lung was over 100 µM in each case. The TGI with MCF7 breast, with OVCAR-4 ovarian, in the experiment on NCI-H226 lung and with HCT-116 colon was over 100 µM throughout.

`Cc1ccc(Nc2c3c(c(C#N)c4nc5ccccc5n24)CCCC3)cc1`: the TGI in the experiment with SN12C renal was 31.7 µM; with DU-145 prostate, over 100 µM; with OVCAR-5 ovarian, 95 µM; in the experiment with BT-549 breast, over 100 µM; in the experiment on OVCAR-3 ovarian, 34.6 µM; with NCI-H522 lung it was 82.4 µM. In addition, the TGI in the experiment on MCF7 breast is over 100 µM; with OVCAR-4 ovarian, over 100 µM; in the experiment with NCI-H226 lung it was 62 µM; in the experiment with HCT-116 colon, 36.8 µM.

Consider `N/C(=N\N=C\c1cc2ccccc2s1)c1cnccn1`, for which the TGI in the experiment with SN12C renal, in the experiment on DU-145 prostate, with OVCAR-5 ovarian, in the experiment on BT-549 breast, in the experiment on OVCAR-3 ovarian and with NCI-H522 lung was over 100 µM throughout. The TGI with MCF7 breast, in the experiment with OVCAR-4 ovarian, in the experiment with NCI-H226 lung and in the experiment with HCT-116 colon was over 100 µM in each case.

Take `Cc1sc2c(c1C)C(=O)c1cccn1-2`: the TGI in the experiment with SN12C renal, in the experiment on DU-145 prostate, in the experiment with OVCAR-5 ovarian, in the experiment on BT-549 breast, with OVCAR-3 ovarian and in the experiment on NCI-H522 lung was over 100 µM each time. Also, the TGI in the experiment with MCF7 breast, with OVCAR-4 ovarian, in the experiment on NCI-H226 lung and in the experiment on HCT-116 colon was over 100 µM each time.

In the case of `CCN(CC)CCNc1c2ccccc2nc2cccc([N+](=O)[O-])c12`, the GI50 with SN12C renal is 0.0221 µM; in the experiment on OVCAR-3 ovarian, 0.0244 µM; in the experiment on OVCAR-4 ovarian it was 0.0279 µM. Moreover, the TGI is 0.0413 µM and 0.207 µM in the experiment with SN12C renal; 0.0146 µM in the experiment on DU-145 prostate; 0.0302 µM in the experiment on OVCAR-5 ovarian; 0.0187 µM with BT-549 breast; 0.0241 µM and 0.0621 µM with OVCAR-3 ovarian; 0.0132 µM in the experiment with NCI-H522 lung. For the same compound, the TGI was 0.0063 µM in the experiment on MCF7 breast; 0.0289 µM and 0.178 µM in the experiment with OVCAR-4 ovarian; 0.0553 µM with NCI-H226 lung; 0.0182 µM and 0.0466 µM in the experiment with HCT-116 colon.
